Source: PMC12586182 (Frontiers in Oncology, 2025)

Columns and labels:
Experiment in all cases: Kinase panel profiling at 1 µmol/L (mobility shift assay, Carna)
Format in all cases: biochemical
Details in all cases: 1 µmol/L of BTK inhibitor
[1] = molecular target: T1, MRCKα (Homo sapiens, UniProt Q5VT25)
T1 construct: purchased Carna Biosciences

[2] = molecular target: T2, CDK2/CycE1 (Homo sapiens, UniProt P24941)
T2 construct: purchased Carna Biosciences

[3] = molecular target: T3, Erk5 (Homo sapiens, UniProt Q13164)
T3 construct: purchased Carna Biosciences

[4] = molecular target: T4, IKKβ (Homo sapiens, UniProt O14920)
T4 construct: purchased Carna Biosciences
T4 sequence (O14920 1-756): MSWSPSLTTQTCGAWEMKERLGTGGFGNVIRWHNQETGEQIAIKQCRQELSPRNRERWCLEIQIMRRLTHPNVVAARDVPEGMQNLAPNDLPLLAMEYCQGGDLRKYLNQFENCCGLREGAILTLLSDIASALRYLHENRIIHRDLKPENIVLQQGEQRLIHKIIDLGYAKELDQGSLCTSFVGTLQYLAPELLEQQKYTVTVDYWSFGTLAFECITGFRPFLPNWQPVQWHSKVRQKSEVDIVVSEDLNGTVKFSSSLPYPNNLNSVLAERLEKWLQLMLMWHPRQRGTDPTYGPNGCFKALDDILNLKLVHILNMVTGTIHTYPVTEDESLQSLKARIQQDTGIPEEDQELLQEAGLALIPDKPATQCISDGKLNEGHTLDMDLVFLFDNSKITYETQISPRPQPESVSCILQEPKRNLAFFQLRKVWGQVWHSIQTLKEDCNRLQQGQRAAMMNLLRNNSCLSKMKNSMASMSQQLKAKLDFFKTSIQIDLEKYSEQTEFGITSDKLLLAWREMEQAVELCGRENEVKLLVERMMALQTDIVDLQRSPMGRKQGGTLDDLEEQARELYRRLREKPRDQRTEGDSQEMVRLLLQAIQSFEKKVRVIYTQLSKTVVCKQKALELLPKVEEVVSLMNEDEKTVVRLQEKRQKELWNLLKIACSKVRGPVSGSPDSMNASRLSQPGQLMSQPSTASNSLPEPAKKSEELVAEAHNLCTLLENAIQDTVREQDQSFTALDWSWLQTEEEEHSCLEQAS

[5] = molecular target: T5, NuaK1 (Homo sapiens, UniProt O60285)
T5 construct: purchased Carna Biosciences
T5 sequence (O60285 1-661): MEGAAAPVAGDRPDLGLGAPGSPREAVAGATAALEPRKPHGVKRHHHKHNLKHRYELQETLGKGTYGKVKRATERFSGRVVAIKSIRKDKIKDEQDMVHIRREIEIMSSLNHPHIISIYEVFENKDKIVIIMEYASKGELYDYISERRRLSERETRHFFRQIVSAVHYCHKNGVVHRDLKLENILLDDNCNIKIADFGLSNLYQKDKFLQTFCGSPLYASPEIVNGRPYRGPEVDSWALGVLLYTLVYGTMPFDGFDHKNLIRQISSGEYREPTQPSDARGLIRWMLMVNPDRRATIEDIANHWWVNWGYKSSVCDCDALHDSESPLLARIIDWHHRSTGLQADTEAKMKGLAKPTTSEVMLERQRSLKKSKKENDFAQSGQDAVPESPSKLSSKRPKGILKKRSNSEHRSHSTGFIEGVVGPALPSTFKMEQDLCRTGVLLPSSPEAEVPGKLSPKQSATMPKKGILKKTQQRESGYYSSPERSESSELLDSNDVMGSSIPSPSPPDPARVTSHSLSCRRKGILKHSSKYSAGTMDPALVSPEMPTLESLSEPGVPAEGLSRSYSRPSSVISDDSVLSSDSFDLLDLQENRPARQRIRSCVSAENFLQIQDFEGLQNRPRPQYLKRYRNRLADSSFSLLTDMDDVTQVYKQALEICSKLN

[6] = molecular target: T6, EPHA2 (Homo sapiens, UniProt P29317)
T6 construct: purchased Carna Biosciences

[7] = molecular target: T7, CDK3/CycE1 (Homo sapiens, UniProt Q00526)
T7 construct: purchased Carna Biosciences

[8] = molecular target: T8, AMPKα2/β1/γ1 (Homo sapiens, UniProt P54646)
T8 construct: purchased Carna Biosciences

[9] = molecular target: T9, p70S6K (Homo sapiens, UniProt P23443)
T9 construct: purchased Carna Biosciences

[10] = molecular target: T10, PGK (Homo sapiens, UniProt Q13976)
T10 construct: purchased Carna Biosciences
T10 sequence (Q13976 1-671): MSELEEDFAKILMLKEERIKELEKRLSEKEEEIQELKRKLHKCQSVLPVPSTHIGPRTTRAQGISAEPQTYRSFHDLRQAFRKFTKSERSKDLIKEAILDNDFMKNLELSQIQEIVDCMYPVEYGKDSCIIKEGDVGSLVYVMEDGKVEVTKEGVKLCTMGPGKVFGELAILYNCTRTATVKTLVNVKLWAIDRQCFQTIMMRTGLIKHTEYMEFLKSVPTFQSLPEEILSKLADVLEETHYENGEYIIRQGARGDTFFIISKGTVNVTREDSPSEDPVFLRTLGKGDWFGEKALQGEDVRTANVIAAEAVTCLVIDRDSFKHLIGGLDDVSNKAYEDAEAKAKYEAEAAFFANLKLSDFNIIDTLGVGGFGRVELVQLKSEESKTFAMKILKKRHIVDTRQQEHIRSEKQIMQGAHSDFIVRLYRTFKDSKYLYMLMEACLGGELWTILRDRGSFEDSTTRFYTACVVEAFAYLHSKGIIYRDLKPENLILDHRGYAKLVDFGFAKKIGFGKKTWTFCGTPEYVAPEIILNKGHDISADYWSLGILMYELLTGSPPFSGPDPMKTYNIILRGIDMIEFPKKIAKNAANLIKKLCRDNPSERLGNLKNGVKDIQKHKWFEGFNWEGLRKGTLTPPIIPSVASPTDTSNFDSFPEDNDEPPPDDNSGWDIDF

T8 sequence (P54646 whole entry): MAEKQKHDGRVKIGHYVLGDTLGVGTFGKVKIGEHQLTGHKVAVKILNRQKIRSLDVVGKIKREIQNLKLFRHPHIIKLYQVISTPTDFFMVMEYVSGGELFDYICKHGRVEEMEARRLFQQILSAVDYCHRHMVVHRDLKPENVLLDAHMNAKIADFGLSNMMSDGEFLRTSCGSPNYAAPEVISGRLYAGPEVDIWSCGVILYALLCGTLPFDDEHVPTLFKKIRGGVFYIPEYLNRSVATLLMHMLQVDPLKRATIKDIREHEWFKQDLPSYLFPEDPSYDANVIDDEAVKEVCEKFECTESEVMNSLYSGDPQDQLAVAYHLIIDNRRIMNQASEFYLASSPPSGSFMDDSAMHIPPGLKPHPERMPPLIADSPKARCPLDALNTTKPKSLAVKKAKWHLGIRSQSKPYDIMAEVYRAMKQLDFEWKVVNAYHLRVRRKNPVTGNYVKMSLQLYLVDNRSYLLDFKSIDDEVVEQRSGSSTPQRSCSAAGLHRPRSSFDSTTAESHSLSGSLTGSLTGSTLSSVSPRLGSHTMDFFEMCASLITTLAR
T8 sequence (Q9Y478 whole entry partner): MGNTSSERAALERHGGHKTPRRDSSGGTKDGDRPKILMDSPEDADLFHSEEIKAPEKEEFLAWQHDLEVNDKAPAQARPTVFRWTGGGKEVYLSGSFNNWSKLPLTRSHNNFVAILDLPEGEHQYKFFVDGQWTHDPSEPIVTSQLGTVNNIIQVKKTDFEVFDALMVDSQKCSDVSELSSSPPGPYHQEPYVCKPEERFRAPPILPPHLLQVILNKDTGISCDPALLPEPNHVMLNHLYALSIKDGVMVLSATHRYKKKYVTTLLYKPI
T8 sequence (P54619 whole entry partner): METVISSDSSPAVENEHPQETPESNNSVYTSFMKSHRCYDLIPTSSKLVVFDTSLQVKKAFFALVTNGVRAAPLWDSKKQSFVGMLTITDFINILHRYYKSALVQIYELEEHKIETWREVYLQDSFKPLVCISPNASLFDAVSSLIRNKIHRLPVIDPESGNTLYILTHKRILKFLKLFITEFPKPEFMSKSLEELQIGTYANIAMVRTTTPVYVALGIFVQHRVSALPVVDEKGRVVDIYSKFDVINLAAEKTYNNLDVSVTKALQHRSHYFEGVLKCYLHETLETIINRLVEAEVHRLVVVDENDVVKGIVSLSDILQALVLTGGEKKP
T9 sequence (P23443 whole entry): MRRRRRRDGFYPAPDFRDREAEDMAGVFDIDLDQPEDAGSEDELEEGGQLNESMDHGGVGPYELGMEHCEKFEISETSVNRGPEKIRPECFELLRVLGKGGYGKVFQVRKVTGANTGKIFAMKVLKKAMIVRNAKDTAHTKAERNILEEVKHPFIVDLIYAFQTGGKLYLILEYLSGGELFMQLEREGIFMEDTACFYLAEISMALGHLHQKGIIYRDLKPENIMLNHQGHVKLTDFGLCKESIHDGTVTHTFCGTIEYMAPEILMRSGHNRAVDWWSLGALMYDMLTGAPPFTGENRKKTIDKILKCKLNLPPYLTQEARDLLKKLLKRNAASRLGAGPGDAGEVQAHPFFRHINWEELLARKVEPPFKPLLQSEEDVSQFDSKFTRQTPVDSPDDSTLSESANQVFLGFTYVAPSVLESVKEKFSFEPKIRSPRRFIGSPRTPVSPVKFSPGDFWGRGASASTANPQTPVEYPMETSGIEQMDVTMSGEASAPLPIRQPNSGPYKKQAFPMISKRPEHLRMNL
T1 sequence (Q5VT25 whole entry): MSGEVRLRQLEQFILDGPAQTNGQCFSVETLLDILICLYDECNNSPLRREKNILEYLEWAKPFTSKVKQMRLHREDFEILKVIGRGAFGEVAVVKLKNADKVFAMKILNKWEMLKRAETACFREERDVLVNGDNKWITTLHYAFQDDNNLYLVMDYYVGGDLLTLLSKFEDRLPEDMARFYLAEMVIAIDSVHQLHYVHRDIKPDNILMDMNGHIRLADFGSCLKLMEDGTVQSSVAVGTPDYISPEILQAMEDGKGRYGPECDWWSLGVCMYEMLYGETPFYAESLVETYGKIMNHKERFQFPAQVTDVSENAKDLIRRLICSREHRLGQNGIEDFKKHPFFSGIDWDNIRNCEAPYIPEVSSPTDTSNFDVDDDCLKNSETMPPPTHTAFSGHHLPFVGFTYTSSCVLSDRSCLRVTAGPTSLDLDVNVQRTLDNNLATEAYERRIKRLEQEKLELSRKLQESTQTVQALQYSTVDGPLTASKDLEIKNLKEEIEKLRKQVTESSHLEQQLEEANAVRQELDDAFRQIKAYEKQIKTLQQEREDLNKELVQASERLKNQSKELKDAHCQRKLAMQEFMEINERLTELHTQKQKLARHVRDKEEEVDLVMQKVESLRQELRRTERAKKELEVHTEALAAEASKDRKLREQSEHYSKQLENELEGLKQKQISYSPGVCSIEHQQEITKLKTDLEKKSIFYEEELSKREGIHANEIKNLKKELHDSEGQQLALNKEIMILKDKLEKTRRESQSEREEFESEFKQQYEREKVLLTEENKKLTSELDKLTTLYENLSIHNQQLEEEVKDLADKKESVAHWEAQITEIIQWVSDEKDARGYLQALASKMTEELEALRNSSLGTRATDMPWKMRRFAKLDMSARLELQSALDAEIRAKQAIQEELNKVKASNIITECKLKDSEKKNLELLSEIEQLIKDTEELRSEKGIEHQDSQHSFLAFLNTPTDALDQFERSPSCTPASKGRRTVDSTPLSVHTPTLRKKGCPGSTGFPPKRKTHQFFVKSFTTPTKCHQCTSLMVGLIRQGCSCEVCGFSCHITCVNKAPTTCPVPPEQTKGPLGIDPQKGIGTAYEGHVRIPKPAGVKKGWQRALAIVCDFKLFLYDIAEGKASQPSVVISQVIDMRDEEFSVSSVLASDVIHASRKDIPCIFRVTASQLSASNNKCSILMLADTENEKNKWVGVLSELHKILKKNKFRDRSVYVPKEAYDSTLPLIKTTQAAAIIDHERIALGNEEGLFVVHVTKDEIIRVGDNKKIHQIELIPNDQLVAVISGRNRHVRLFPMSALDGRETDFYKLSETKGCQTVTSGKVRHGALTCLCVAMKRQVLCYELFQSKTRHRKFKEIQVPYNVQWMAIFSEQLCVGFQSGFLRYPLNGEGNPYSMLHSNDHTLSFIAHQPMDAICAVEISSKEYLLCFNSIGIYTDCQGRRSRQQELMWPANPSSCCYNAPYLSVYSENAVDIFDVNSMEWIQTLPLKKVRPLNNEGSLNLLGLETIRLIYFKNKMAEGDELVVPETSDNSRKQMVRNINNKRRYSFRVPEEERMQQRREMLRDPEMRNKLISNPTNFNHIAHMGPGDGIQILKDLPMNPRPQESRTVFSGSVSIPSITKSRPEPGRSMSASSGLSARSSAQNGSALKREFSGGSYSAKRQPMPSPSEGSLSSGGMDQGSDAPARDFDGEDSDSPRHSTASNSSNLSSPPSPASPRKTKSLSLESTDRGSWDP
T6 sequence (P29317 24-976): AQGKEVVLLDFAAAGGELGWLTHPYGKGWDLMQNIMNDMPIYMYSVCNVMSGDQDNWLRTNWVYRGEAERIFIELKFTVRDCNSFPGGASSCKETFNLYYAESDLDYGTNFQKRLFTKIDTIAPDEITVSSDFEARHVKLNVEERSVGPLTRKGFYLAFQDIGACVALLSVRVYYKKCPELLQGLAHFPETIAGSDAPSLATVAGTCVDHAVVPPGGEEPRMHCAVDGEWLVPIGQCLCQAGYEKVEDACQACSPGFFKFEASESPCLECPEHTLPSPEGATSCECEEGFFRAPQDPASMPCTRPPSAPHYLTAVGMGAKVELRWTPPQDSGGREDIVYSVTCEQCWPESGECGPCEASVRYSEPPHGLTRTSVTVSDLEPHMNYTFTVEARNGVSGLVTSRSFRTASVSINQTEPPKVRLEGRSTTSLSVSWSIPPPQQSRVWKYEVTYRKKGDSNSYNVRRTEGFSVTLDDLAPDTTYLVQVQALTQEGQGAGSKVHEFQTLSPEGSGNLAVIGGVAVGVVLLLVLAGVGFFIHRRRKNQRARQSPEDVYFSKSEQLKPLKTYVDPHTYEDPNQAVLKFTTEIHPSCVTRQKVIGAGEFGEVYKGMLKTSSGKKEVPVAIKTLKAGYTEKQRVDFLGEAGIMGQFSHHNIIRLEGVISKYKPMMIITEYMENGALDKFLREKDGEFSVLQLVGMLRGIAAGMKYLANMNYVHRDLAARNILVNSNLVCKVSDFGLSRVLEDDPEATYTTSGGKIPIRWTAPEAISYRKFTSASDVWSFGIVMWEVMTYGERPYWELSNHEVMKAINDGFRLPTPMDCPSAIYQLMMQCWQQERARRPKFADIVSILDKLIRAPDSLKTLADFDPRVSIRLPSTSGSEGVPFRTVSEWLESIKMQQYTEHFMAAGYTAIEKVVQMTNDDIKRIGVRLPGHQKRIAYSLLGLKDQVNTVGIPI

Structure (SMILES) | Percentage inhibition of kinase enzyme activity [1] | Percentage inhibition of kinase enzyme activity [2] | Percentage inhibition of kinase enzyme activity [3] | Percentage inhibition of kinase enzyme activity [4] | Percentage inhibition of kinase enzyme activity [5] | Percentage inhibition of kinase enzyme activity [6] | Percentage inhibition of kinase enzyme activity [7] | Percentage inhibition of kinase enzyme activity [8] | Percentage inhibition of kinase enzyme activity [9] | Percentage inhibition of kinase enzyme activity [10]
CC#CC(=O)N1CCC[C@H]1c1nc(-c2ccc(C(=O)Nc3ccccn3)cc2)c2c(N)nccn12 [acalabrutinib] | -7.47% | -4.82% | -2.12% | -6.98% | -3.51% | -3.60% | -6.14% | 3.50% | -13.73% | -3.70%
C=CC(=O)N1CCC([C@@H]2CCNc3c(C(N)=O)c(-c4ccc(Oc5ccccc5)cc4)nn32)CC1 [zanubrutinib] | – | – | – | – | – | -0.10% | – | – | – | –
O=C(c1ccc(Oc2ccccc2)cc1Cl)c1c[nH]c2ncnc(N[C@@H]3CC[C@@H](CO)OC3)c12 [nemtabrutinib] | 9.50% | -17.66% | 15.76% | -1.18% | 3.95% | 33.13% | 7.04% | 40.46% | 4.51% | -2.11%
COc1ccc(F)cc1C(=O)NCc1ccc(-c2nn([C@@H](C)C(F)(F)F)c(N)c2C(N)=O)cc1 [pirtobrutinib] | 0.63% | -41.48% | 0.51% | 0.58% | 4.02% | 4.53% | -4.77% | 6.23% | -0.48% | 0.94%
C=CC(=O)N1CCC[C@@H](n2nc(-c3ccc(Oc4ccccc4)cc3)c3c(N)ncnc32)C1 [ibrutinib] | -0.62% | -8.27% | 3.89% | -0.35% | 6.70% | 6.83% | 0.49% | 10.21% | 19.28% | 1.89%
